In US4645858A, “Pentanedioic acid derivatives” (G. D. Searle & Co., priority 1985, dated 1987):

Experiments:
HMG CoA reductase = biological target: T1, HMG CoA reductase (Rattus norvegicus, UniProt P51639); assay: HMG CoA reductase activity assay (rat liver microsomal preparation); type: biochemical
T1 construct: The resultant supernatants are discarded and the residues suspended in half the volume of homogenization medium previously employed; from tissue; host or cells: liver of male Charles River CD rats treated with 20,25-diazacholesterol; 100,000×g pellet (microsomes) of the homogenate
T1 sequence (P51639 1-887): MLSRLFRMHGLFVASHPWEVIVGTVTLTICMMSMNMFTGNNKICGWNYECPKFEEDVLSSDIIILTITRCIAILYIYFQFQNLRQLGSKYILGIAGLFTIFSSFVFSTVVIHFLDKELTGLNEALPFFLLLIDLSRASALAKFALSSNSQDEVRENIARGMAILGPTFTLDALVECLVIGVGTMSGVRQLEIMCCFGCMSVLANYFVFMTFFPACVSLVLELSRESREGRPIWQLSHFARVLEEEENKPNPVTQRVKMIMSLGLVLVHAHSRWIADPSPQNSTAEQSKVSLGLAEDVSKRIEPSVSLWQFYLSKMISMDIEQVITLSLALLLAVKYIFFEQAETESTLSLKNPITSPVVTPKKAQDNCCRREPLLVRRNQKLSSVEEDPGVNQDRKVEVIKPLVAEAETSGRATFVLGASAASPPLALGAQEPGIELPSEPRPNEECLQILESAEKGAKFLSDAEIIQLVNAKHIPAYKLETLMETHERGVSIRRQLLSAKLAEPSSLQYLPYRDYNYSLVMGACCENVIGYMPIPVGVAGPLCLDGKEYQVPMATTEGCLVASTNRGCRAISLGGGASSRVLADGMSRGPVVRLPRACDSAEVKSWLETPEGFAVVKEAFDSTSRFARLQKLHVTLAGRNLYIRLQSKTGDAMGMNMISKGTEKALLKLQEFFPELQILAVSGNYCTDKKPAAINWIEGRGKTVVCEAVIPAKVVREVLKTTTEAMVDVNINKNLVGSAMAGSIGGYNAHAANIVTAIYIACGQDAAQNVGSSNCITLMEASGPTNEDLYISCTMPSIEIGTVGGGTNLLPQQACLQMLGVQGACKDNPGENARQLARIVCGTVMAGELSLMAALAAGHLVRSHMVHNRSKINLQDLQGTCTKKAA

male Rhesus monkey = assay: In vivo serum cholesterol test in male Rhesus monkeys; details: 60 mg/kg/day
Protocol: In vivo activity is tested as follows:
Initial serum total cholesterol, triglycerides, and lipoprotein cholesterol values are determined 3 times for each male Rhesus monkey used before treatment with a test compound begins. The test compound is administered in an initial dose of 60 mg/kg for 2 weeks and blood samples are taken to determine if rebound occurs. […] Statistical comparisons are made using the two tailed student's test.

## O=C(O)CC(O)(CC(=O)O)CC1CCCC1
HMG CoA reductase; at concentrations at least up to 1000 μm
  HMG CoA reductase inhibition: inactive

## O=C(O)CC(O)(CCCCCCCCCCC1CCCCC1)CC(=O)O
HMG CoA reductase; read-out: IC50 (HMG CoA reductase inhibition)
  IC50: 52 µM

## CCCCCCCCCCCCCCCC(O)(CC(=O)O)CC(=O)O
Male Rhesus monkey; Rhesus monkeys
  acute toxicity: acute toxicity in 2 of 4 monkeys

## CC(C)(C)CCCCCCCCCCCC(O)(CC(=O)O)CC(=O)O
Male Rhesus monkey; after 14 days of treatment, Rhesus monkey
  reduced serum cholesterol: 30%
